# Source: US20240148821A1, “PHARMACEUTICAL USE OF CYCLIC PEPTIDE COMPOUND” (CHUGAI SEIYAKU KABUSHIKI KAISHA, priority 2021, published 2024)
# Numbered stars: 1 amine (or outer) side, 2 acyl side, 3 side chain; on linkers, the order of the positions; unused ones are H or OH. Bridge positions count the residues as written; N and C are the ends. Square brackets hold non-standard residues; d marks the D form. Peptide text beside a SMILES is read from it. hPhe(3,5-F2-4-CF3) = N[C@@H](CCc1cc(F)c(C(F)(F)F)c(F)c1)C(=O)O; hPhe(3-Cl-4-CF3) = N[C@@H](CCc1ccc(C(F)(F)F)c(Cl)c1)C(=O)O; NMePhe(4-CF3) = CN[C@@H](Cc1ccc(C(F)(F)F)cc1)C(=O)O; dβ3h(hPhe) = O=C(C[C@@H](CCc1ccccc1)N[*:1])[*:2]; NMePhe(4-Me) = CN[C@@H](Cc1ccc(C)cc1)C(=O)O; X133 = O=C(C[C@H](N[*:1])C(F)(F)F)[*:2]; X42 = CC(C)C[C@H](CC(=O)[*:2])N(C)[*:1]; NMeGly(cBu) = CN[C@H](C(=O)O)C1CCC1; X76 = C=CC[C@H](CC(=O)[*:2])N[*:1]; X4 = C#CC[C@H](CC(=O)[*:2])N[*:1]; NMeI = CC[C@H](C)[C@H](NC)C(=O)O; d(β3hL) = CC(C)C[C@@H](N)CC(=O)O; NMeD = CN[C@@H](CC(=O)O)C(=O)O; NMeL = CN[C@@H](CC(C)C)C(=O)O; NMeA = CN[C@@H](C)C(=O)O; Ac5c = NC1(C(=O)O)CCCC1; Aze = O=C(O)[C@@H]1CCN1; Sar = CNCC(=O)O
# Molecular target: protein-protein interaction between Kras and SOS1 (biotin-tagged human Kras loaded with GDP, His-tagged human SOS1) (Homo sapiens (Human), UniProt P01116, G12D)
# Assay: Protein-protein interaction inhibition between Kras and SOS1 (KrasG12D-SOS PPI) using AlphaScreen;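 further: kras produced in E. coli, Ni-coupled donor beads and streptavidin acceptor beads, excitation 680 nm with emission detected at 520–620 nm via singlet oxygen transfer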
# Type: biochemical
# Conditions: AlphaScreen; biotin-tagged human Kras loaded with GDP, His-tagged human SOS1; read-out: KRAS G12D-SOS PPI IC50
row,SMILES,IC50
1,CC[C@H](C)[C@@H]1NC(=O)[C@H](CC(C)C)N(C)C(=O)C[C@@H](CCc2ccccc2)NC(=O)[C@H]([C@@H](C)CC)N(C)C(=O)C2(CCCC2)NC(=O)[C@@H]2CCCN2C(=O)[C@H](CCc2ccc(C(F)(F)F)c(Cl)c2)NC(=O)CN(C)C(=O)[C@H](Cc2ccc(C)cc2)N(C)C(=O)[C@@H]2CCN2C(=O)[C@H](C)N(C)C1=O [Compound 1874] (cyclo([Ac5c][NMeI][dβ3h(hPhe)][NMeL]I[NMeA][Aze][NMePhe(4-Me)][Sar][hPhe(3-Cl-4-CF3)]P)),400 nM
2,C=CC[C@@H]1CC(=O)N(C)[C@@H](CC(C)C)C(=O)N[C@@H]([C@@H](C)CC)C(=O)N(C)[C@@H](C)C(=O)N2CC[C@H]2C(=O)N(C)[C@@H](Cc2ccc(C)cc2)C(=O)N(C)CC(=O)N[C@@H](CCc2ccc(C(F)(F)F)c(Cl)c2)C(=O)N2CCC[C@H]2C(=O)NC2(CCCC2)C(=O)N(C)[C@@H]([C@@H](C)CC)C(=O)N1 [Compound 1883] (cyclo([Ac5c][NMeI][X76][NMeL]I[NMeA][Aze][NMePhe(4-Me)][Sar][hPhe(3-Cl-4-CF3)]P)),65 nM
3,"CC[C@H](C)[C@@H]1NC(=O)[C@H](CC(C)C)N(C)C(=O)C[C@@H](CC(C)C)NC(=O)[C@H]([C@@H](C)CC)N(C)C(=O)C2(CCCC2)NC(=O)[C@@H]2CCCN2C(=O)[C@H](CCc2cc(F)c(C(F)(F)F)c(F)c2)NC(=O)CN(C)C(=O)[C@H](Cc2ccc(C)cc2)N(C)C(=O)[C@@H]2CCN2C(=O)[C@H](C)N(C)C1=O [Compound 1891] (cyclo([Ac5c][NMeI][d(β3hL)][NMeL]I[NMeA][Aze][NMePhe(4-Me)][Sar][hPhe(3,5-F2-4-CF3)]P))",230 nM
4,CC[C@H](C)[C@@H]1NC(=O)[C@H](CC(C)C)N(C)C(=O)C[C@@H](CC(C)C)NC(=O)[C@H]([C@@H](C)CC)N(C)C(=O)C2(CCCC2)NC(=O)[C@@H]2CCCN2C(=O)[C@H](CCc2ccc(C(F)(F)F)c(Cl)c2)NC(=O)CN(C)C(=O)[C@H](Cc2ccc(C(F)(F)F)cc2)N(C)C(=O)[C@@H]2CCN2C(=O)[C@H](C)N(C)C1=O [Compound 1899] (cyclo([Ac5c][NMeI][d(β3hL)][NMeL]I[NMeA][Aze][NMePhe(4-CF3)][Sar][hPhe(3-Cl-4-CF3)]P)),220 nM
5,CC[C@H](C)[C@@H]1NC(=O)[C@H](CC(C)C)N(C)C(=O)C[C@@H](C(F)(F)F)NC(=O)[C@H]([C@@H](C)CC)N(C)C(=O)C2(CCCC2)NC(=O)[C@@H]2CCCN2C(=O)[C@H](CCc2ccc(C(F)(F)F)c(Cl)c2)NC(=O)CN(C)C(=O)[C@H](Cc2ccc(C)cc2)N(C)C(=O)[C@@H]2CCN2C(=O)[C@H](C)N(C)C1=O [Compound 1919] (cyclo([Ac5c][NMeI][X133][NMeL]I[NMeA][Aze][NMePhe(4-Me)][Sar][hPhe(3-Cl-4-CF3)]P)),210 nM
6,CC[C@H](C)[C@@H]1NC(=O)[C@H](CC(C)C)N(C)C(=O)C[C@@H](C(=O)N(C)C)N(C)C(=O)[C@H]([C@@H](C)CC)N(C)C(=O)C2(CCCC2)NC(=O)[C@@H]2CCCN2C(=O)[C@H](CCc2ccc(C(F)(F)F)c(Cl)c2)NC(=O)CN(C)C(=O)[C@H](C2CCC2)N(C)C(=O)[C@@H]2CCN2C(=O)[C@H](C)N(C)C1=O [Compound 1961] ([NMeL]I[NMeA][Aze][NMeGly(cBu)][Sar][hPhe(3-Cl-4-CF3)]P[Ac5c][NMeI][NMeD]-NMe2; lactam N-11),1.8 nM
7,C#CC[C@@H]1CC(=O)N(C)[C@@H](CC(C)C)C(=O)N[C@@H]([C@@H](C)CC)C(=O)N(C)[C@@H](C)C(=O)N2CC[C@H]2C(=O)N(C)[C@@H](Cc2ccc(C)cc2)C(=O)N(C)CC(=O)N[C@@H](CCc2ccc(C(F)(F)F)c(Cl)c2)C(=O)N2CCC[C@H]2C(=O)NC2(CCCC2)C(=O)N(C)[C@@H]([C@@H](C)CC)C(=O)N1 [Compound 1967] (cyclo([Ac5c][NMeI][X4][NMeL]I[NMeA][Aze][NMePhe(4-Me)][Sar][hPhe(3-Cl-4-CF3)]P)),77 nM
8,CC[C@H](C)[C@@H]1NC(=O)[C@H](CC(C)C)N(C)C(=O)C[C@@H](CC(C)C)N(C)C(=O)[C@H]([C@@H](C)CC)N(C)C(=O)C2(CCCC2)NC(=O)[C@@H]2CCCN2C(=O)[C@H](CCc2ccc(C(F)(F)F)c(Cl)c2)NC(=O)CN(C)C(=O)[C@H](Cc2ccc(C)cc2)N(C)C(=O)[C@@H]2CCN2C(=O)[C@H](C)N(C)C1=O [Compound 1974] (cyclo([Ac5c][NMeI][X42][NMeL]I[NMeA][Aze][NMePhe(4-Me)][Sar][hPhe(3-Cl-4-CF3)]P)),45 nM
9,CC[C@H](C)[C@@H]1NC(=O)[C@H](CC(C)C)N(C)C(=O)C[C@@H](CC(C)C)NC(=O)[C@H]([C@@H](C)CC)N(C)C(=O)C2(CCCC2)NC(=O)[C@@H]2CCCN2C(=O)[C@H](CCc2ccc(C(F)(F)F)c(Cl)c2)NC(=O)CN(C)C(=O)[C@H](Cc2ccc(C)cc2)N(C)C(=O)[C@@H]2CCN2C(=O)[C@H](C)N(C)C1=O [Compound 1995] (cyclo([Ac5c][NMeI][d(β3hL)][NMeL]I[NMeA][Aze][NMePhe(4-Me)][Sar][hPhe(3-Cl-4-CF3)]P)),340 nM
